What was measured:
Format in all cases: biochemical
EPHA2 = biological target: T1, EPHA2 (Homo sapiens, UniProt P29317); assay: EPHA2 kinase assay, IMAP fluorescence polarization; settings: 50 or 100 μM ATP, Tris pH 8.5, average
T1 construct: purchased Life Technologies

SIK3 = biological target: T2, SIK3 (Homo sapiens, UniProt Q9Y2K2); assay: SIK3 kinase assay, IMAP fluorescence polarization; settings: 50 or 100 μM ATP, average
T2 construct: purchased Life Technologies
Summary of the method: (§1)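 Phosphorylation of 100 nM FAM-peptide by 0.6-13 nM kinase (50 or 100 μM ATP, pH 7.2 Tris/MgCl2 buffer, 60 min, RT) was quantified by IMAP fluorescence polarization. Stop reagent: 0.25% IMAP binding reagent, buffer A:B 85:15, except 30:70 for Src.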

Src = biological target: T3, Src (Homo sapiens, UniProt P12931); assay: Src kinase assay, IMAP fluorescence polarization; settings: 50 or 100 μM ATP, average
T3 construct: purchased Life Technologies
T3 sequence (P12931 whole entry): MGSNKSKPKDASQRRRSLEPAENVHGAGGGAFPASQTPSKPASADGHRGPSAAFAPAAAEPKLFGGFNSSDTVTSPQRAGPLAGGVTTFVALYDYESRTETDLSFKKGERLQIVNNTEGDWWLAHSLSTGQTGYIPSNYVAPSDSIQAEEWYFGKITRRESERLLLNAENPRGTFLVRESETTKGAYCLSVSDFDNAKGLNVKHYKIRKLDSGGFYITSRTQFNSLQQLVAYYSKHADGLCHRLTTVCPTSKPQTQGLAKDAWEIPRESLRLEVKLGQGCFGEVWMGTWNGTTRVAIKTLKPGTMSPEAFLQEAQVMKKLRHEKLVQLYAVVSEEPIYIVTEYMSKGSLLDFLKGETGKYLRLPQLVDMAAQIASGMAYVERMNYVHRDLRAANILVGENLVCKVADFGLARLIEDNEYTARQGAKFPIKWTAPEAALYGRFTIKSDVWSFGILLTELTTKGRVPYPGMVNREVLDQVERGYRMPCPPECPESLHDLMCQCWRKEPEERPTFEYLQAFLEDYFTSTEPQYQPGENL
Summary of the method: as §1

Abl = biological target: T4, Abl (Homo sapiens, UniProt P00519); assay: Abl kinase assay, IMAP fluorescence polarization; settings: 50 or 100 μM ATP, average
T4 construct: purchased Life Technologies
T4 sequence (P00519 whole entry): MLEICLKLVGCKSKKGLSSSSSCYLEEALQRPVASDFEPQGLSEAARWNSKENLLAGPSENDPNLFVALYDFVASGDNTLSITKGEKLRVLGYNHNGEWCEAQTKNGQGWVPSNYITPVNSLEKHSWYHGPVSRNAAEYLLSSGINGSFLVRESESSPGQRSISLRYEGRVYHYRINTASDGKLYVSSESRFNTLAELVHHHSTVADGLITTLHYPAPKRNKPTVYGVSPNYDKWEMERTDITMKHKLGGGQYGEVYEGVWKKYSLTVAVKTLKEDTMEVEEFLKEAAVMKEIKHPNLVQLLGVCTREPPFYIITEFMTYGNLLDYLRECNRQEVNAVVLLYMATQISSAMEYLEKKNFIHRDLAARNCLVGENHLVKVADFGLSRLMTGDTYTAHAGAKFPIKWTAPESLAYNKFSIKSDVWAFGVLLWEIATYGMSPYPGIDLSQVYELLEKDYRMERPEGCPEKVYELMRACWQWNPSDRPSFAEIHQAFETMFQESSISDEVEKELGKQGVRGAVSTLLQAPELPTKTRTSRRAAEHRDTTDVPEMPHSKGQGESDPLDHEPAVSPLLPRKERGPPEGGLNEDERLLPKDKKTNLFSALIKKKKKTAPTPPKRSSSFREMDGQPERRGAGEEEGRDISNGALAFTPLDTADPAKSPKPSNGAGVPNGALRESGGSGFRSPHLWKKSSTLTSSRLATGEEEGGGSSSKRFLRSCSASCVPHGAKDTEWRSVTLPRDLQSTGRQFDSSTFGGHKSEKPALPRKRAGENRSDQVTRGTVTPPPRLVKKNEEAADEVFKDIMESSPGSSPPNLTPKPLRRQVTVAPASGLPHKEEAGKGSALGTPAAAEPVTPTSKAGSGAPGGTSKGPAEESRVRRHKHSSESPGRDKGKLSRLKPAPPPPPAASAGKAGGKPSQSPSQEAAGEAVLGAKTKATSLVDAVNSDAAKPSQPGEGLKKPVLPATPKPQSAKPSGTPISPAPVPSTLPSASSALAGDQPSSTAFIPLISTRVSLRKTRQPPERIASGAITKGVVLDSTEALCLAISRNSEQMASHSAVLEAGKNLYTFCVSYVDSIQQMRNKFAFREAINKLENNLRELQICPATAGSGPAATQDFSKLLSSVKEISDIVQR
Summary of the method: as §1

SIK1 = biological target: T5, SIK1 (Homo sapiens, UniProt P57059); assay: SIK1 kinase assay, IMAP fluorescence polarization; settings: 50 or 100 μM ATP, average
T5 construct: purchased Life Technologies
T5 sequence (P57059 whole entry): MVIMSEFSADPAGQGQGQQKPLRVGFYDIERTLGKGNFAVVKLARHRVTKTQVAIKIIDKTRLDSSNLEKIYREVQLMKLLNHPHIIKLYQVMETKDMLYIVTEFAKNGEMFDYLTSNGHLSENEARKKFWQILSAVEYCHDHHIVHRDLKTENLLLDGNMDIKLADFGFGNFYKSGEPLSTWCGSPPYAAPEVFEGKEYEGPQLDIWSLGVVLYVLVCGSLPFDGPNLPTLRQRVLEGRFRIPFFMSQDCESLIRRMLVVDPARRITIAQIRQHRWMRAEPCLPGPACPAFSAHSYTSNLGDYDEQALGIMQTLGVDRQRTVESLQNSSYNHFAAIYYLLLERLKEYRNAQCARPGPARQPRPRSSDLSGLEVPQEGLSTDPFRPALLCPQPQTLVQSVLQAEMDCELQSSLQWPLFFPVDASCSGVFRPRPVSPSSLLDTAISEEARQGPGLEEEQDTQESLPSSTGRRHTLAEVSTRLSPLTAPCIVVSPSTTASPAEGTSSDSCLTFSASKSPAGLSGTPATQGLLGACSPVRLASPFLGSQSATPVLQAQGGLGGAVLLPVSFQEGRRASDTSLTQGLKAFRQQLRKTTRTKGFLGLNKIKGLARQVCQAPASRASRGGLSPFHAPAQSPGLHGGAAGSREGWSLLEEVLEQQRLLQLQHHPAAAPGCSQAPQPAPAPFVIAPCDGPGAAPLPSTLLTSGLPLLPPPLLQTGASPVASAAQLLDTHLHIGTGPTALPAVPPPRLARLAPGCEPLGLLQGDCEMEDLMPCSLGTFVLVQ
Summary of the method: as §1

SIK2 = biological target: T6, SIK2 (Homo sapiens, UniProt Q9H0K1); assay: SIK2 kinase assay, IMAP fluorescence polarization; settings: 50 or 100 μM ATP, average
T6 construct: purchased Life Technologies
Summary of the method: as §1

T1 sequence (P29317 24-976): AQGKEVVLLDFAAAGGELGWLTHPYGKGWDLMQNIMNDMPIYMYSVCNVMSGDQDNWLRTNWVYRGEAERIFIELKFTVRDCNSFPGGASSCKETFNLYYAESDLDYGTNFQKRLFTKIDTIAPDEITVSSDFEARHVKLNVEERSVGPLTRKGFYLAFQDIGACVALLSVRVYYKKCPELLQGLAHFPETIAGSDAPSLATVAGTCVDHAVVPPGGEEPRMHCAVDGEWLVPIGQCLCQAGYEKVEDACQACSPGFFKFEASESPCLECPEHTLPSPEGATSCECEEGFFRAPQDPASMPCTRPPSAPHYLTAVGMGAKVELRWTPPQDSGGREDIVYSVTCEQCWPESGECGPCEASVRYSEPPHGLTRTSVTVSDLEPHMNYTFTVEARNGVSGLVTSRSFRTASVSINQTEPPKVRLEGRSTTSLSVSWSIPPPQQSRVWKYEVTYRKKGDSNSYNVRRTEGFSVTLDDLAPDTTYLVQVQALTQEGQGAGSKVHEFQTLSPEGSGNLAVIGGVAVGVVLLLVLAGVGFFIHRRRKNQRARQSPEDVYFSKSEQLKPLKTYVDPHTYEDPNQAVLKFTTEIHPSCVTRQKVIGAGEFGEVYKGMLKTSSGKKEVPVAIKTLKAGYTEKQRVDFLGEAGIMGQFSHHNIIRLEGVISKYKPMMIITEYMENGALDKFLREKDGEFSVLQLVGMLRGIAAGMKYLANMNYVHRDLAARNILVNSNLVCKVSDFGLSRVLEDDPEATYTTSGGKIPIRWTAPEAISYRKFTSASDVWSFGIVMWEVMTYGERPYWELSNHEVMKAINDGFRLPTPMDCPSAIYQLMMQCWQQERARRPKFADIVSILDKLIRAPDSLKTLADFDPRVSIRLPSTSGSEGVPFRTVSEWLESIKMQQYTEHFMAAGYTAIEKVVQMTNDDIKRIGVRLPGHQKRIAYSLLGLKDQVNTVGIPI
T2 sequence (Q9Y2K2 whole entry): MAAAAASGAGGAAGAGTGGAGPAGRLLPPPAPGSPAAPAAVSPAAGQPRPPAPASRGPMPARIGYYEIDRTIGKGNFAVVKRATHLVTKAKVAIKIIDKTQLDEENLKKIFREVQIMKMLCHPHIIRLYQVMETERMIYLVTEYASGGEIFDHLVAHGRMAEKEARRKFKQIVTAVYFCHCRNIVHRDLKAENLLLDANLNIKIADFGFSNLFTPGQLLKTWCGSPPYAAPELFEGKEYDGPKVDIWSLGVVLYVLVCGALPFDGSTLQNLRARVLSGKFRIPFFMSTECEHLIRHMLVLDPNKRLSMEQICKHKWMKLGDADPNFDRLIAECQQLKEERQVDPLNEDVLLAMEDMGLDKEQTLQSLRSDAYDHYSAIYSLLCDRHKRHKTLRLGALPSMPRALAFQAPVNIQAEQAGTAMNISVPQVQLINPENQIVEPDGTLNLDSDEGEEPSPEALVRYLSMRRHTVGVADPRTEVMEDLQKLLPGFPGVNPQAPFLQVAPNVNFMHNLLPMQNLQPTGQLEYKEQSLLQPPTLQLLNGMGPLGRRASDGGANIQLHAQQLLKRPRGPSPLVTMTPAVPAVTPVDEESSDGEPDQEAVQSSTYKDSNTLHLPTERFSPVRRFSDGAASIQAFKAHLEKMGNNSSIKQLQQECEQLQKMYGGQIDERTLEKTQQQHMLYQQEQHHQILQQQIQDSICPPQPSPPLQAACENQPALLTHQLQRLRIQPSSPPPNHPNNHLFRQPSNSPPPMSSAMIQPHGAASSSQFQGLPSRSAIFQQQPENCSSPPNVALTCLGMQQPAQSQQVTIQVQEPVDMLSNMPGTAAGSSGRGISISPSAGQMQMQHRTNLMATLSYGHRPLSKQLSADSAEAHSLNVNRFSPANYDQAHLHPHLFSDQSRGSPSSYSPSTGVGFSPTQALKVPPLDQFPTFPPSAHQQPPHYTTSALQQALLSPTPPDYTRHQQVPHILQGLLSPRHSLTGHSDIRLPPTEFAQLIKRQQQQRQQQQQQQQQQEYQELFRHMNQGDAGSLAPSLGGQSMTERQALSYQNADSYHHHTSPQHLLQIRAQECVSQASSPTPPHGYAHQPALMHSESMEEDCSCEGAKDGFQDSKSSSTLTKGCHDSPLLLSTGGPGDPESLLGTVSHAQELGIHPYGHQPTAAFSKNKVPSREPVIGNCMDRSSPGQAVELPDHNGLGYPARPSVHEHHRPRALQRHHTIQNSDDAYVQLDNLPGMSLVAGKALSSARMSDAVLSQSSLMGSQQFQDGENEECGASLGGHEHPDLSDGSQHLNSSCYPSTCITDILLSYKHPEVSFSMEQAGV

Row | SMILES | Ki (EPHA2) | Ki (SIK3) | Ki (Src) | Ki (Abl) | Ki (SIK1) | Ki (SIK2)
1 | CC(=O)NC1CCN(c2cc(-c3c(C)cccc3F)cc3cnc(N)cc23)CC1 [Example 114, N-[1-[3-amino-7-(2-fluoro-6-methyl-phenyl)-5-isoquinolyl]-4-piperidyl]acetamide] | > 1000 nM | 20.3 nM | 1600 nM | 16.4 nM | 12 nM | 0.617 nM
2 | Cc1cccc(F)c1-c1cc(C2CCN(C)CC2)c2cc(N)ncc2c1 [Example 117, 7-(2-Fluoro-6-methyl-phenyl)-5-(1-methyl-4-piperidyl)isoquinolin-3-amine] | > 1000 nM | 0.473 nM | > 1000 nM | 12.3 nM | 0.678 nM | 0.0546 nM
3 | CCN1CCC(Nc2cc(-c3c(C)cccc3F)c(F)c3cnc(N)cc23)CC1 [Example 118, N5-(1-Ethyl-4-piperidyl)-8-fluoro-7-(2-fluoro-6-methyl-phenyl)isoquinoline-3,5-diamine] | > 10000 nM | 77 nM | > 10000 nM | > 10000 nM | 10.2 nM | 6.2 nM
4 | Cc1cccc(F)c1-c1cc(NC2CCN(C)CC2)c2cc(N)ncc2c1F [Example 119, 8-fluoro-7-(2-fluoro-6-methyl-phenyl)-N5-(1-methyl-4-piperidyl)isoquinoline-3,5-diamine] | > 1000 nM | 25 nM | > 1000 nM | > 1000 nM | 4.3 nM | 3.11 nM
5 | Cc1cccc(F)c1-c1cc(NC2CCNCC2)c2cc(N)ncc2c1F [Example 120, 8-Fluoro-7-(2-fluoro-6-methyl-phenyl)-N5-(4-piperidyl)isoquinoline-3,5-diamine] | > 1000 nM | 22.1 nM | > 1000 nM | > 1000 nM | 3.55 nM | 2.43 nM
6 | Cc1cccc(F)c1-c1cc(NC2CCN(C)CC2)c2cc(N)ncc2n1 [Example 121, 2-(2-Fluoro-6-methyl-phenyl)-N4-(1-methyl-4-piperidyl)-1,7-naphthyridine-4,6-diamine] | 2650 nM | 488 nM | > 10000 nM | > 10000 nM | 178 nM | 46 nM
7 | Cc1cccc(F)c1-c1cc(NC2CCN(C)CC2)c2ccncc2n1 [Example 122, 2-(2-Fluoro-6-methyl-phenyl)-N-(1-methyl-4-piperidyl)-1,7-naphthyridin-4-amine] | > 10000 nM | 531 nM | > 10000 nM | > 10000 nM | 266 nM | 121 nM
8 | Cc1cccc(F)c1-c1cc(NC2CCNCC2)c2ncncc2c1 [Example 123, 6-(2-Fluoro-6-methyl-phenyl)-N-(4-piperidyl)quinazolin-8-amine] | 216 nM | 6.92 nM | > 1000 nM | > 1000 nM | 2.72 nM | 1.86 nM
9 | Cc1cccc(F)c1-c1cc(NC2CCNCC2)c2nc(N)ncc2c1 [Example 124, 6-(2-fluoro-6-methyl-phenyl)-N8-(4-piperidyl)quinazoline-2,8-diamine] | 48.6 nM | 0.354 nM | 17.1 nM | 6.13 nM | 0.338 nM | 0.0472 nM
10 | Cc1cccc(F)c1-c1cc(NC2CCN(C)CC2)c2ncncc2c1 [Example 125, 6-(2-Fluoro-6-methyl-phenyl)-N-(1-methyl-4-piperidyl)quinazolin-8-amine] | 244 nM | 5 nM | > 1000 nM | > 1000 nM | 2.99 nM | 1.37 nM
11 | CCN1CCC(Nc2cc(-c3c(C)cccc3F)cc3cncnc23)CC1 [Example 126, N-(1-Ethyl-4-piperidyl)-6-(2-fluoro-6-methyl-phenyl)quinazolin-8-amine] | 302 nM | 6.35 nM | 539 nM | 92.7 nM | 2.95 nM | 3.01 nM
12 | CCN1CCC(Nc2cc(-c3c(C)cccc3F)cc3cnc(N)nc23)CC1 [Example 127, N8-(1-Ethyl-4-piperidyl)-6-(2-fluoro-6-methyl-phenyl)quinazoline-2,8-diamine] | 149 nM | 1.22 nM | 30.8 nM | 7.16 nM | 0.647 nM | 0.168 nM
13 | Cc1cccc(Cl)c1-c1cc(NC2CCN(C)CC2)c2ncncc2c1 [Example 130, 6-(2-chloro-6-methyl-phenyl)-N-(1-methyl-4-piperidyl)quinazolin-8-amine] | 85.3 nM | 17.2 nM | 549 nM | > 10000 nM | 5.53 nM | 2.87 nM
14 | CCN1CCC(Nc2cc(-c3c(C)cccc3Cl)cc3cncnc23)CC1 [Example 131, 6-(2-chloro-6-methyl-phenyl)-N-(1-ethyl-4-piperidyl)quinazolin-8-amine] | 75.6 nM | 20.9 nM | 285 nM | 237 nM | 5.39 nM | 5.59 nM
15 | Cc1cccc(F)c1-c1cc(NC2CCN(C)CC2)c2nc(N)ncc2c1 [Example 132, 6-(2-fluoro-6-methyl-phenyl)-N8-(1-methyl-4-piperidyl)quinazoline-2,8-diamine] | 58.8 nM | 0.45 nM | 46.3 nM | 8.63 nM | 0.317 nM | 0.0399 nM
16 | Cc1cccc(F)c1-c1cc(NC(=O)C2CCNC2)c2cc(N)ncc2c1 (stereo not drawn) [Example 136, N-[3-amino-7-(2-fluoro-6-methyl-phenyl)-5-isoquinolyl] pyrrolidine-3-carboxamide] | 260 nM | 8.89 nM | 147 nM | 27.6 nM | 1.9 nM | 1.1 nM
17 | Cc1cccc(Cl)c1-c1cc(NC2CCNCC2)c2ncncc2c1 [Example 138, 6-(2-chloro-6-methyl-phenyl)-N-(4-piperidyl)quinazolin-8-amine] | 93.4 nM | 15.7 nM | 333 nM | 545 nM | 3.7 nM | 3.12 nM

Next, values leading:

Row | Ki (EPHA2) | Ki (SIK3) | Ki (Src) | Ki (Abl) | Ki (SIK1) | Ki (SIK2) | SMILES
18 | 1.08 nM | 0.301 nM | 0.974 nM | 0.243 nM | 0.183 nM | 0.0274 nM | CC(=O)Nc1cc2c(NC3CCN(C)CC3)cc(-c3c(C)cccc3F)cc2cn1 [Example 115, N-[7-(2-Fluoro-6-methyl-phenyl)-5-[(1-methyl-4-piperidyl)amino]-3-isoquinolyl]acetamide]
19 | 47.4 nM | 13.8 nM | 80.2 nM | 16.7 nM | 8.53 nM | 4.93 nM | Cc1cccc(F)c1-c1cc(C(=O)NC2CCN(C)CC2)c2cc(N)ncc2c1 [Example 116, 3-Amino-7-(2-fluoro-6-methyl-phenyl)-N-(1-methyl-4-piperidyl)isoquinoline-5-carboxamide]
20 | 20 nM | 1.46 nM | 27.4 nM | 26.4 nM | 0.409 nM | 0.184 nM | CCN1CCC(Nc2cc(-c3c(C)cccc3Cl)cc3cnc(N)nc23)CC1 [Example 128, 6-(2-chloro-6-methyl-phenyl)-N8-(1-ethyl-4-piperidyl)quinazoline-2,8-diamine]
21 | 18.1 nM | 0.339 nM | 19.3 nM | 17.4 nM | 0.176 nM | 0.0784 nM | Cc1cccc(Cl)c1-c1cc(NC2CCN(C)CC2)c2nc(N)ncc2c1 [Example 129, 6-(2-chloro-6-methyl-phenyl)-N8-(1-methyl-4-piperidyl)quinazoline-2,8-diamine]
22 | 34.8 nM | 0.271 nM | 6.32 nM | 1.13 nM | 0.348 nM | 0.0609 nM | Cc1cccc(F)c1-c1cc(NC2CCNCC2)c2c(C#N)c(N)ncc2c1 [Example 133, 3-Amino-7-(2-fluoro-6-methyl-phenyl)-5-(4-piperidylamino)isoquinoline-4-carbonitrile]
23 | 25.1 nM | 0.452 nM | 12.3 nM | 1.94 nM | 0.558 nM | 0.132 nM | Cc1cccc(F)c1-c1cc2cnc(N)cc2c(NC2CCNCC2)c1F [Example 134, 6-Fluoro-7-(2-fluoro-6-methyl-phenyl)-N5-(4-piperidyl)isoquinoline-3,5-diamine]
24 | 30.7 nM | 0.312 nM | 65.3 nM | 7.99 nM | 0.361 nM | 0.0936 nM | Cc1cccc(F)c1-c1cc2cnc(N)cc2c(NC2CCN(C)CC2)c1F [Example 135, 6-Fluoro-7-(2-fluoro-6-methyl-phenyl)-N5-(1-methyl-4-piperidyl)isoquinoline-3,5-diamine]
25 | 9.22 nM | 0.51 nM | 18.7 nM | 22.5 nM | 0.296 nM | 0.0693 nM | Cc1cccc(Cl)c1-c1cc(NC2CCNCC2)c2nc(N)ncc2c1 [Example 137, 6-(2-chloro-6-methyl-phenyl)-N8-(4-piperidyl)quinazoline-2,8-diamine]
